Test results published in ChEMBL document CHEMBL1201862, “PubChem BioAssay data set” (2004).
Calls of active or inactive are those of the source.

Tests used:
Protein Rev = Protein Rev (Human immunodeficiency virus type 1 group M subtype B (isolate WMJ22)(HIV-1), UniProt P05866); assay: HIV-1 Rev-RRE RNA binding disruptors, dose response, biochemical, protein-RNA interaction (AID 842); set-up: species or system Human immunodeficiency virus 1
[1] = cytotoxicity in KRAS-transformed pancreatic duct cells, primary screen, cell-based, fluorescence, HTS (AID 431); format: functional; details: Homo sapiens;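 further: cell line used: HPDE-C7K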
[2] = cytotoxicity in HPDE-C7 cells, cell-based, fluorescence, HTS (AID 430); format: functional; details: Homo sapiens
[3] = target: Heat shock protein HSP 90-alpha (Homo sapiens, UniProt P07900); assay: Luminescence-based dose response biochemical high throughput screening assay for inhibitors of the Heat Shock Protein 90 (HSP90). [Related pubchem assays: 1831 (Summary AID.), 1846 (Confirmation screen.), 1789 (Primary screen.)]
[4] = target: T1, Heat shock factor protein 1 (Mus musculus, UniProt P38532); assay: inhibition of MG132-induced HSE-luciferase signal, confirmation, cell-based, NIH3T3, luminescence, dose retest (AID 2382); format: functional;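 further: NIH3T3 fibroblasts with HSF1-driven luciferase reporter stressed by proteasome inhibitor MG132; luminescence from HSF1-driven luciferase expression after 8 hours of MG132 stress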
T1 sequence (P38532 whole entry): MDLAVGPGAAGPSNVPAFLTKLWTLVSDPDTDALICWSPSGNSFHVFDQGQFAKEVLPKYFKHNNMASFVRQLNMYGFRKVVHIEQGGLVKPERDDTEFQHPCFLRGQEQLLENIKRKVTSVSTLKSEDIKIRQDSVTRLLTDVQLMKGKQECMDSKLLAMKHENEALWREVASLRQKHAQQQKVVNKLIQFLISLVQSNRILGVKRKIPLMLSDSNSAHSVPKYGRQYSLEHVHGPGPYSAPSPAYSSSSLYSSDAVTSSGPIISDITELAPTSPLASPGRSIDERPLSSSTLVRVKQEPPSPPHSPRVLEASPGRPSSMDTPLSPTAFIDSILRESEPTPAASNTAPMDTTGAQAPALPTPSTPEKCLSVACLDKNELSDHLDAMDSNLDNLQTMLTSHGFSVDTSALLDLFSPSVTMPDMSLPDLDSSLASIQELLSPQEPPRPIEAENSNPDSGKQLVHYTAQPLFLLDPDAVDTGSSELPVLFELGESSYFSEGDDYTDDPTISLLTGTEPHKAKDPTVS

[5] = cytotoxicity in HEK-293T cells, dose response, cytotoxicity control for BCR NF-kB inhibitor project, luminescence, B-cell screen hits (AID 489021); format: functional, cell-based;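 further: HEK-293T cells carrying an NF-kB luciferase reporter; cells exposed to compound for about 14 hours before viability readout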
ORF 73 = ORF 73 (Human herpesvirus 8, UniProt O40947); assay: inhibitors of C-LANA binding to LBS DNA, dose response, biochemical, fluorescence polarization, cherry-picked samples (AID 504725); set-up: species or system Human gammaherpesvirus 8;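 further: fluorescence polarization of a labeled DNA duplex reporting LANA DNA binding; potency is for inhibitors that block LANA binding to the DNA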
Sequence of ORF 73 (O40947 whole entry): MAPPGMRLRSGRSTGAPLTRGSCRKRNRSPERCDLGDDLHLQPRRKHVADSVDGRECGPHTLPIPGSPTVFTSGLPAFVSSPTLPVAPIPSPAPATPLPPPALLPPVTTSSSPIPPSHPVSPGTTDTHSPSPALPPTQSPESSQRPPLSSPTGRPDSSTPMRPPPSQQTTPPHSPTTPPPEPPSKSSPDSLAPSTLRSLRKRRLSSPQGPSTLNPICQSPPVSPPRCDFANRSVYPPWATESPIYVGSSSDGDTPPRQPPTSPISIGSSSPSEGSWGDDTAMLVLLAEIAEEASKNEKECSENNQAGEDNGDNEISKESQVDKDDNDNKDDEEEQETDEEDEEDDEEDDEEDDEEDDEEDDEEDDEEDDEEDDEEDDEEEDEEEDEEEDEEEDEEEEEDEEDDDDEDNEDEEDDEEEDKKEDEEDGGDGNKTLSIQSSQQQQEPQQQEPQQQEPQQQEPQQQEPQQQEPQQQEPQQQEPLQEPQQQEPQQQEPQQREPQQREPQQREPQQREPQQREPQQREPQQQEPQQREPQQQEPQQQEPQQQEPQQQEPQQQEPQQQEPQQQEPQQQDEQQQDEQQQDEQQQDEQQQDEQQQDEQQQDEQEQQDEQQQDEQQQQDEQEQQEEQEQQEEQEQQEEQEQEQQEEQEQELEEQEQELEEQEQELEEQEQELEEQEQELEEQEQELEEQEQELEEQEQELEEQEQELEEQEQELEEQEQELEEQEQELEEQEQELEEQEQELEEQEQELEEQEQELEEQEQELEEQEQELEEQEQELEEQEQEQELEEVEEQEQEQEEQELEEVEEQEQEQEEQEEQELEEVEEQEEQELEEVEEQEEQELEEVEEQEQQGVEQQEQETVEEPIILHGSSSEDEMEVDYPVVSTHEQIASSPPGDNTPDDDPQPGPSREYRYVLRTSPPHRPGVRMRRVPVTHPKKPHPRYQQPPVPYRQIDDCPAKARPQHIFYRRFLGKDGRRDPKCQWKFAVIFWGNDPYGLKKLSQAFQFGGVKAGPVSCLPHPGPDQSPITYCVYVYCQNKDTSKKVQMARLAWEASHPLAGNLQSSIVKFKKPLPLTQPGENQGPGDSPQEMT

[6] = target: Neuropeptides B/W receptor type 1 (Homo sapiens, UniProt P48145); assay: Fluorescence-based dose response cell-based high throughput screening assay to identify antagonists of the G-protein coupled receptor 7 (GPR7). [Related pubchem assays: 1952 (Screening assay (GPR7 antagonists).), 1880 (Summary AID.)]; format: functional
Sequence of Neuropeptides B/W receptor type 1 (P48145 whole entry): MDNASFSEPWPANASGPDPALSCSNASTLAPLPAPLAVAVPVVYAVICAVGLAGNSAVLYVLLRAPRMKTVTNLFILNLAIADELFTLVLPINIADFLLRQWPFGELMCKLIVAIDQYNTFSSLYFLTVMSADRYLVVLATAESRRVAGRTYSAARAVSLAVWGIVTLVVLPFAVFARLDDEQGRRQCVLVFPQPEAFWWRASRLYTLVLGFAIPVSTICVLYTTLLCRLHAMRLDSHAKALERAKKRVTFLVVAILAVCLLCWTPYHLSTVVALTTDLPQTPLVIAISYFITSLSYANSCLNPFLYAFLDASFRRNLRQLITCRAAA

[7] = target: Melanin-concentrating hormone receptor 1 (Homo sapiens, UniProt Q99705); assay: Fluorescence-based counterscreen for antagonists of the G-protein coupled receptor 7 (GPR7): cell-based high throughput dose response assay to identify antagonists of the melanin-concentrating hormone receptor 1 (MCHR1).; format: functional
Sequence of Melanin-concentrating hormone receptor 1 (Q99705 whole entry): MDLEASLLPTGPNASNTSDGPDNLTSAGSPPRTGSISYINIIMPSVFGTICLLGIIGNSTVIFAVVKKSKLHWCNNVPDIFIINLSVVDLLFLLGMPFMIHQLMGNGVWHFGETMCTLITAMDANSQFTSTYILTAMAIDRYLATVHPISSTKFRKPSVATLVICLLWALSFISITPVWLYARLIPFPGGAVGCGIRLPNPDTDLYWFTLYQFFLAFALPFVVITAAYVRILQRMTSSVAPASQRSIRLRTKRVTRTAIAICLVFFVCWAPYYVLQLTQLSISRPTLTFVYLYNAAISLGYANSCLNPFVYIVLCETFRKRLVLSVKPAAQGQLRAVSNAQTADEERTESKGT

[8] = cytotoxicity in HEK-293T cells, dose response, cytotoxicity control for TCR NF-kB inhibitor project, luminescence, T-cell screen hits (AID 489026); format: functional, cell-based;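 further: cells exposed to compound about 14 hours before the viability readout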
[9] = target: Scavenger receptor class B member 1 (Mus musculus, UniProt Q61009); assay: inhibitors of SR-BI mediated HDL lipid uptake, dose response, ldlA[mSR-BI] cells, fluorescence, cherry pick (AID 493194); format: functional, cell-based;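 further: cellular uptake of fluorescent DiI-labeled HDL measured as cell fluorescence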
Sequence of Scavenger receptor class B member 1 (Q61009 whole entry): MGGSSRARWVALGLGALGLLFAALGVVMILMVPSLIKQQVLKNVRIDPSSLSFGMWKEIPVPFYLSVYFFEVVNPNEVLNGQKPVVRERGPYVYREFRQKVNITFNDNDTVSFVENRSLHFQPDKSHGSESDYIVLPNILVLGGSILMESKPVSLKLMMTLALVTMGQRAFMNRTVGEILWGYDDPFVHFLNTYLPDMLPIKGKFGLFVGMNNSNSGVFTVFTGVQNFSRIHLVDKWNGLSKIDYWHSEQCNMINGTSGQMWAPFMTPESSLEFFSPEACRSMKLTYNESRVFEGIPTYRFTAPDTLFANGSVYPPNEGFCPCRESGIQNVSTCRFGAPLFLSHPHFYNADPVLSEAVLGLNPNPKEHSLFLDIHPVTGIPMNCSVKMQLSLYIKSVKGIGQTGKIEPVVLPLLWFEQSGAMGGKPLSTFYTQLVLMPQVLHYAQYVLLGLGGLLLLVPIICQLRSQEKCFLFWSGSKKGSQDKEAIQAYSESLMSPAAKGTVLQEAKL

Sequence of Protein Rev (P05866 whole entry): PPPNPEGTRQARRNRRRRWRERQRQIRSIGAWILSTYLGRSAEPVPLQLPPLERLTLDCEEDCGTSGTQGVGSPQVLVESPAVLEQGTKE

In the case of `CN(C)CC(O)COc1ccc(-c2ccc(C#N)cc2)cc1` (configuration not stated), the IC50 (Protein Rev) is reported as > 79.4 µM (not active), the EC50 [1] is reported as > 20 µM (not active) and the EC50 [2] is reported as > 20 µM (not active).

For `Cc1ccc(/C=C2\SC(=S)N(CCCC(=O)Nc3ccccn3)C2=O)cc1`, the IC50 [3] was 17.8 µM (not active), the EC50 [4] was 1.51 µM (active) and the IC50 [5] was > 80 µM (inactive).

For `O=C(COc1ccccc1Cc1ccccc1)NCCCN1CCOCC1`, the AC50 (ORF 73) was 183 µM (active).

With `COc1ccccc1C(=O)N(CCC1CCCN1C)c1nc2ccccc2s1` (configuration not stated) the EC50 [4] was < 0.16 µM (active), the IC50 [6] was 21.4 µM (not active) and the IC50 [7] was 29.7 µM (not active). The IC50 [8] was > 80 µM (inactive).

With `Cc1cc(C)n(CC(=O)NC2CCCc3c2cnn3-c2ccc(C)c(C)c2)n1` (configuration not stated) the AC50 [9] was 0.819 µM (active).
